Our source for the IC50 values is ChEMBL document CHEMBL2321799 (J Med Chem, 2013).

Molecules are shown by their SMILES.

For assay [1], the target named is T1, Ephrin type-A receptor 8 (Homo sapiens, UniProt P29322).
T1 sequence (P29322 whole entry): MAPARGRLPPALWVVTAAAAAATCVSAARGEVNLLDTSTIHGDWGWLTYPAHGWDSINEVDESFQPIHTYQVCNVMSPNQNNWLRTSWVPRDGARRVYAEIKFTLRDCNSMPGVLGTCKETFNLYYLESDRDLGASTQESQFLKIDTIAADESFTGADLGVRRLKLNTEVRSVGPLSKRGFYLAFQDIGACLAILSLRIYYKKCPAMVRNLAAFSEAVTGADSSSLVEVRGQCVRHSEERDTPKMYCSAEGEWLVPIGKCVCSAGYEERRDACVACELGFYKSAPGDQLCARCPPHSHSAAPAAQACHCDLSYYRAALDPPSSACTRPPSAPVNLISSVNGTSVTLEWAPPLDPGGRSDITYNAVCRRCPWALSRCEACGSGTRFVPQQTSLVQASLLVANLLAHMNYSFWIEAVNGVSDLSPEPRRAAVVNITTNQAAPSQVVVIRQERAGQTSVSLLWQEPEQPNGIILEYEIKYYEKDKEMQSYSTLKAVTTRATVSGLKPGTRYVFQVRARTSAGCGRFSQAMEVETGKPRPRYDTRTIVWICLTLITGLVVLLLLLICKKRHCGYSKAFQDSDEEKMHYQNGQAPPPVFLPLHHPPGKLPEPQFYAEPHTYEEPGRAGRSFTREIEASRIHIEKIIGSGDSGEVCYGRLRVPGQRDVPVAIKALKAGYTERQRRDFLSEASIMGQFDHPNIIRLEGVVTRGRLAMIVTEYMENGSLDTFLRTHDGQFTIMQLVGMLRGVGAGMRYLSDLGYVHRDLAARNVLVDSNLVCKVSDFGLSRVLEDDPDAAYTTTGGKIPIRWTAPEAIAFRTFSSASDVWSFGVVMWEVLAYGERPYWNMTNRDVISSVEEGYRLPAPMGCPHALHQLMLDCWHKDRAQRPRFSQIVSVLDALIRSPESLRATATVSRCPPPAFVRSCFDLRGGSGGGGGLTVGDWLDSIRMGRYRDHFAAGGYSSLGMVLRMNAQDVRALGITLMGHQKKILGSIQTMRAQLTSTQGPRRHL
Description: Displacement of ephrin-A1-Fc from EphA8 receptor Fc ectodomain (unknown origin) after 1 hr by ELISA.

Assay [2] addresses T2, Ephrin type-B receptor 1 (Homo sapiens, UniProt P54762).
T2 sequence (P54762 whole entry): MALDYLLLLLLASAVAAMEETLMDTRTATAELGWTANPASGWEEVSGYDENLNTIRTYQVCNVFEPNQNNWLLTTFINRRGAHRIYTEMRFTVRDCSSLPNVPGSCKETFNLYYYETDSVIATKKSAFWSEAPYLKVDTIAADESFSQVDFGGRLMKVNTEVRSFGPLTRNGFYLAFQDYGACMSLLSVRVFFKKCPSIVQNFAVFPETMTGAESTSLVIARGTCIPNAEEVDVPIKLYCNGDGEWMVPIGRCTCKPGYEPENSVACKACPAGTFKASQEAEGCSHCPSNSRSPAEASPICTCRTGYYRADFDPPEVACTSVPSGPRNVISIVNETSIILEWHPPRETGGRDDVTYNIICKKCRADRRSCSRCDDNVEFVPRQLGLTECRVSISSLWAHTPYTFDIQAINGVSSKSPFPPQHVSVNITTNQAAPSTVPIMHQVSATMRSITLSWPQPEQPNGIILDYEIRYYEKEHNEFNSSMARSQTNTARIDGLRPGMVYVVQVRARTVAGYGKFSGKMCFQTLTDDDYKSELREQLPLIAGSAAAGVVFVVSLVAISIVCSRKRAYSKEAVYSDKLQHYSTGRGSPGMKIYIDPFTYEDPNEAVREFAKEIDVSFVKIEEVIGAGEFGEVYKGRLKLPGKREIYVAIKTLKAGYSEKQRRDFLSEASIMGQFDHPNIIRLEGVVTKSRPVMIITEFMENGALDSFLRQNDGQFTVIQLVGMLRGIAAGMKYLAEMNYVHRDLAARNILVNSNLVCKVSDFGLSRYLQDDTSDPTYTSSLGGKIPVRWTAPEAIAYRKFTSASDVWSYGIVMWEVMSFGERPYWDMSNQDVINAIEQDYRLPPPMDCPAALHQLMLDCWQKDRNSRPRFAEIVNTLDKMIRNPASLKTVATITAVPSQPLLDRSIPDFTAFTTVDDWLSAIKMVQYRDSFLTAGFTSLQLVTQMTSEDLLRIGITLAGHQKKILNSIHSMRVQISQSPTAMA
Put plainly: Displacement of ephrin-B1-Fc from EphB1 receptor Fc ectodomain (unknown origin) after 1 hr by ELISA. In general terms: In an ELISA, binding on a coated surface is turned into a signal by an enzyme label.

In assay [3] the target is T3, Ephrin type-A receptor 6 (Homo sapiens, UniProt Q9UF33).
T3 sequence (Q9UF33 whole entry): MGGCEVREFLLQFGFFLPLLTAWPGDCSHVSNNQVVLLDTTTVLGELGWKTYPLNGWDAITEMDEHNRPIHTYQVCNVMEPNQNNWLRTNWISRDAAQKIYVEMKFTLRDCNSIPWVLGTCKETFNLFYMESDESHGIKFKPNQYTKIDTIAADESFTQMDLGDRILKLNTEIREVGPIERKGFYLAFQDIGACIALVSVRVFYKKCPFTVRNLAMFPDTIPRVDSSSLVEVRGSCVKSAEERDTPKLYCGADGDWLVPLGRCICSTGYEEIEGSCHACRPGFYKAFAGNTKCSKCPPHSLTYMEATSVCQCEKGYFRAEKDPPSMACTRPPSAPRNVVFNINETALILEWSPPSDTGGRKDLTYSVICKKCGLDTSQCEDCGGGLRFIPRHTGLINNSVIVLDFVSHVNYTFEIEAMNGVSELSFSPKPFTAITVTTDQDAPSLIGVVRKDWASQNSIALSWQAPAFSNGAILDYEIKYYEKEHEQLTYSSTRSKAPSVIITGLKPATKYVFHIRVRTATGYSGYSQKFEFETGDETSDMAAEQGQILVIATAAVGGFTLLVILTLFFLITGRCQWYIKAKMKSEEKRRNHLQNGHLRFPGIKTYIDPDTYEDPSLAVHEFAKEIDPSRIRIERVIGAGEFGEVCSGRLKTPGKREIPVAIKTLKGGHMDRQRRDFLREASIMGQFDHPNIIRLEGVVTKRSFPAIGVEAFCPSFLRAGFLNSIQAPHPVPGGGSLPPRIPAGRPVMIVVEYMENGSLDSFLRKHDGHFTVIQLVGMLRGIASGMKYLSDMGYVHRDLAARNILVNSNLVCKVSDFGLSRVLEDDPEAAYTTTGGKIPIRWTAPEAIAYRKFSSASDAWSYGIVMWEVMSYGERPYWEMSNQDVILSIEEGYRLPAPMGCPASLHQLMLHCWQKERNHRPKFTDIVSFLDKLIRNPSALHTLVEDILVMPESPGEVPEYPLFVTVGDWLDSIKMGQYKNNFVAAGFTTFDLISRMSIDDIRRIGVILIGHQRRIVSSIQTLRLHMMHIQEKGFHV
Put plainly: Displacement of ephrin-A1-Fc from EphA6 receptor Fc ectodomain (unknown origin) after 1 hr by ELISA.

For `C[C@H](CCC(=O)N[C@@H](Cc1c[nH]c2ccccc12)C(=O)O)[C@H]1CC[C@H]2[C@@H]3CC[C@@H]4C[C@H](O)CC[C@]4(C)[C@H]3CC[C@]12C`, the half-inhibitory concentration (IC50) (as a rule, the midpoint of a concentration-inhibition curve) turned out to be 1500 nM in assay [1], 3800 nM in assay [2] and 1500 nM in assay [3].
